The values that follow come from the RepoRT retention time repository.

The data set can be described thus: RP, Waters ACQUITY UPLC BEH C18, 50 × 2.1 mm, 1.7 µm, 40 °C, 0.6 mL/min, estimated dead time 0.18 min; A: water + 0.1% formic acid, pH 3; B: acetonitrile + 0.1% formic acid, pH 3; gradient (min/%B) 0/5 7/100 8/100. The conditions noted are these: stereoisomer not certain.

With `COc1cc2c(cc1OC)-c1c3c(cc4c1C(C2)N(C)CC4)OCO3` (configuration not stated), the LC retention time is 1.84 min.
The value for `CCCCCCCCCCCCCCC[C@@H]1CCC[C@@H](C)N1` [(2R,6R)-2-methyl-6-pentadecylpiperidine] was 5.12 min; that for `COc1ccc(-c2oc3cc(OC)c(OC)c(O)c3c(=O)c2OC)cc1O` was 2.62 min; that for `CC(C)=CC1CC(C2CCC3(C)C4=CCC5C(C)(C)C(O)CCC5(C)C4CC(C=O)=C23)C(O)O1` (configuration not stated) was 5.19 min.
The value for `COc1ccc(OC)c([N+](=O)[O-])c1/C=C/[N+](=O)[O-]` [1,4-dimethoxy-2-nitro-3-[(1E)-2-nitroethenyl]benzene] was 0.72 min.
Next, `C=C(C(=O)C(OC(C)=O)C(C)C1C(OC(C)=O)CC2(C)C3C4OC4C4C(C)C(=O)C=CC45CC35CCC12C)C(C)CO` (configuration not stated): 3.48 min; `Oc1ccc(C2c3c(O)cc(O)cc3C3C(c4ccc(O)cc4)c4c(O)cc(O)cc4C23)cc1` (configuration not stated): 1.77 min.
On to `CC[C@H]1NC2C[C@@]3(C(=O)N(OC)c4cc(OC)ccc43)C3CC1C2CO3` (some centres not stated), for which the LC retention time was 1.95 min.
The value for `C=C[C@H]1CN2CCC3c4ccccc4NC3[C@H]2C[C@@H]1/C(=C\OC)C(=O)OC` (some centres not stated) was 2.64 min.
The value for `CC(=O)OC1CC(O)C23COCC1(C)C2CC(O)C1(C)C3C(=O)C(O)C2(C)C(c3ccoc3)CC3OC321` (configuration not stated) was 2.27 min.
`C/C=C/C(CC1C(=O)C=CC1(O)CCCCCCCC(=O)O)OC(C)=O` (configuration not stated): the LC retention time is 2.88 min.
In the case of `Cc1ccc2c(c1)C1(C(C)C)CCC2(C)OO1` (configuration not stated), the LC retention time is 4.34 min.
The value for `COC(=O)[C@@]12C[C@@H]3C[C@H]([C@H](C)O)C1N(CCc1c2[nH]c2ccccc12)C3` was 1.91 min; that for `CC[C@@]12CC(C(=O)OC)=C3Nc4ccccc4[C@@]34CCN(C[C@H]3O[C@H]31)C24` (some centres not stated) was 1.96 min.
The value for `COc1cccc2nc3occc3c(OC)c12` [4,5-dimethoxyfuro[2,3-b]quinoline] was 2.62 min; that for `C[C@@H]1CC2(NCCS2)C(=O)C(O[C@@H]2CC3CCC4C(CC[C@]5(C)[C@@H](C6=CC(=O)OC6)CC[C@]45O)[C@@]3(C=O)C[C@H]2O)O1` (some centres not stated) was 1.89 min.
Next, `C=C(C(=O)C(O)C(C)C1C(OC(C)=O)CC2(C)C3CC(O)C4C(C)C(=O)C=CC45CC35CCC12C)C(C)CO` (configuration not stated): 3.41 min.
With `O=C(/C=C/c1ccc(O)cc1)OC[C@H]1O[C@@H](Oc2cc(O)c3c(=O)cc(-c4ccc(O)cc4)oc3c2)[C@H](OC(=O)/C=C/c2ccc(O)cc2)[C@@H](O)[C@@H]1O`, the LC retention time is 3.15 min.
Next, `COc1c(O)cc(-c2oc3cc(O)cc(O)c3c(=O)c2O[C@@H]2O[C@@H](C)[C@H](O)[C@@H](O)[C@H]2O)cc1O`: 0.287 min; `CC(=O)OC/C=C(\C)C(=O)OC1C(=O)C(CO)=CC(OC(C)=O)C1C(C)C` (configuration not stated): 2.84 min; `CC1(C(=O)O)CCCC2(C)C3CCC4CC3(C=C4CO)CCC12` (configuration not stated): 3.51 min.
On to `CC1CC2CCCC3N4C(=O)CCCC4CC(C1)N23` (configuration not stated), for which the LC retention time is 0.978 min.
Next, `COc1ccc2cc1-c1cc(ccc1O)C[C@@H]1NCCc3cc4c(cc31)Oc1c(c(OC)c(O)c3c1[C@H](C2)N(C)CC3)O4`: 1.69 min; `CC1CC2CC3CCCC(=O)N3C3CCC(O)C(C1)N23` (configuration not stated): 0.92 min; `CC12CCC(C(OC(=O)/C=C/c3ccc(O)cc3)C1)C2(C)C` (configuration not stated): 4.89 min.
Next, `C[C@@H]1O[C@H](O[C@@H]2[C@@H](O)[C@H](OCCc3ccc(O)c(O)c3)O[C@H](CO)[C@H]2OC(=O)/C=C/c2ccc(O)c(O)c2)[C@H](O)[C@H](O)[C@H]1O`: 0.258 min; `CCC(C)C(=O)C1=C(O)C2(CC=C(C)C)CC(CCC(C)(C)NC(C)=O)C(C)(C)C(C(CC(=O)O)c3ccccc3)=C2OC1=O` (configuration not stated): 4.87 min; `CCC(C)C(=O)C1=C(O)C2(CC=C(C)C)CC(CCC(C)(C)OC(=O)C(F)(F)F)C(C)(C)C(C(CC(=O)O)c3ccccc3)=C2OC1=O` (configuration not stated): 6.11 min.
The value for `COc1c(O)c(OC)c(C(=O)C2CC=C(CCC=C(C)C)CC2c2ccccc2)c(O)c1OC` (configuration not stated) was 5.76 min.
In the case of `COc1ccc(-c2oc3cc(O)c(OC)c(O)c3c(=O)c2OC)cc1O`, the LC retention time was 2.2 min.
In the case of `CCCCCCCCCCCC(=O)OC12CC(C)C3(O)C(C4OC4(CO)C(O)C4(O)C(=O)C(C)=CC43)C1C2(C)C` (configuration not stated), the LC retention time was 5.96 min.
The value for `C=C1C(=O)O[C@@H]2C[C@@]3(C)CCCC(=C)[C@@H]3C[C@H]12` was 4.2 min; that for `COc1cc2c3c(c1O)Oc1ccc(cc1)CC1c4c(cc(OC)c(O)c4Oc4ccc(cc4)CC3N(C)CC2)CCN1C` (configuration not stated) was 1.44 min.
Next, `C=C(CO)C(=O)OC1CC(=C)C2CC(=O)C(C)C2C2OC(=O)C(=C)C12` (configuration not stated): 3.08 min; `C/C(=C\CC/C=C(\C)CC/C=C(\C)CCC(O)C(C)(C)O)CC/C=C(\C)CCC(O)C(C)(C)O` (configuration not stated): 5.34 min; `Cc1coc2c1C(=O)C(=O)c1c-2ccc2c(C)cccc12` [1,6-dimethyl-10H,11H-phenanthro[1,2-b]furan-10,11-dione]: 3.42 min.
The value for `COC1=CC(=O)C2(c3cc(=O)c4c(O)cc(O)cc4o3)C(CC=C(C)C2C[C@@]2(O)C(C)(O)CC[C@H]3C(C)(C)C[C@H](O)C[C@@]32C)C1=O` (some centres not stated) was 1.09 min; that for `Cn1c(N)nc2c(ncn2C)c1=O` [2-amino-1,9-dimethyl-6,9-dihydro-1H-purin-6-one] was 0.226 min.
In the case of `CC1(C)CCC2(C(=O)O)CC=C3C(C)(CCC4C3(C)CCC3C(C)(C)C(OC(=O)c5ccc(O)cc5)C(OC(=O)c5ccc(O)cc5)CC43C)C2C1` (configuration not stated), the LC retention time was 5.54 min.
Next, `CCCC(CC(=O)O)C1=C2OC(=O)C(C(=O)CC(C)C)=C(O)C2(CC=C(C)C)CC(CC=C(C)C)C1(C)C` (configuration not stated): 6.51 min; `CCC(C)C(=O)C1=C(O)C2(CC=C(C)C)CC(CCC(C)(C)O)C(C)(C)C(C(CC(=O)O)c3ccccc3)=C2OC1=O` (configuration not stated): 5 min.
As for `C=C(C(=O)C(O)C(C)C1C(OC(C)=O)CC2(C)C3CCC4C(C)C(=O)C=CC45CC35CCC12C)C(C)CO` (configuration not stated), the LC retention time was 4.1 min.
Next, `CCCCCCCCCCCCC[C@@H]1CCC[C@@H](C)N1` [(2R,6R)-2-methyl-6-tridecylpiperidine]: 4.58 min; `CC1CCC2(C)C(CCC3OC32C)C1(C)CC(=O)c1ccoc1` (configuration not stated): 3.41 min.
The value for `CC(=O)O[C@@H](C[C@@H](C)C1=C2CC(O)C3[C@@]4(C)CCC(=O)C(C)(C)C4CC[C@]3(C)[C@@]2(C)CC1)[C@H]1OC1(C)C` (some centres not stated) was 5.4 min; that for `C=C1COC(=O)C12C[C@@]1(C)C([C@@H](OC(=O)/C=C/SC)CC[C@@H]1C)[C@H]2OC(=O)/C(C)=C\C` (some centres not stated) was 4.71 min.
Consider `C=C1COC(=O)C12C[C@@]1(C)C([C@@H](OC(=O)/C(C)=C\C)CC[C@@H]1C)[C@H]2OC(C)=O` (some centres not stated), for which the LC retention time is 4.16 min.
The value for `CC1CCC2(C)C(CCC(O)C2(C)O)C1(C)CC(O)c1ccoc1` (configuration not stated) was 5.61 min; that for `C=C1C2CCC3C4(C)CCCC(C)(C(=O)O)C4CCC3(C2)C1O` (configuration not stated) was 3.64 min.
Take `COc1ccc2c3c1OC1C(O)C=CC4C(C2)N(C)CCC341` (configuration not stated): the LC retention time is 0.85 min.
For the molecule `CC1=CC2CC(C)C(CO)/C=C(\C)C(O)C(=O)/C=C(\C)CCC12` (configuration not stated), the LC retention time was 4.1 min.
The value for `COc1ccc(Cc2nccc3cc(OC)c(OC)cc23)cc1OC` [1-[(3,4-dimethoxyphenyl)methyl]-6,7-dimethoxyisoquinoline] was 1.79 min; that for `CC(C)=CCC1CC23CC(CC=C(C)C)C(C)(C)C(CC=C(C)C)(C(=O)C(C(=O)c4ccc(O)c(O)c4)=C2OC1(C)C)C3=O` (configuration not stated) was 5.93 min.
As to `C=C1COC(=O)C12C[C@@]1(C)C([C@@H](OC(=O)/C=C/SC)CC[C@@H]1C)[C@H]2OC(C)=O` (some centres not stated), the LC retention time was 4.07 min.
The value for `C=C1C(=O)O[C@@H]2C[C@@]3(C)CCC[C@H](C)C3=C[C@H]12` was 4.26 min; that for `CC(C)(O)/C=C/C(=O)[C@](C)(O)[C@H]1[C@H](O)C[C@@]2(C)[C@@H]3CC=C4[C@@H](C[C@H](O)C(=O)C4(C)C)[C@]3(C)C(=O)C[C@]12C` was 2.77 min.
Next, `CCC1CN(C)CC2Cc3c([nH]c4ccccc34)C(=O)CC12` (configuration not stated): 1.71 min.
In the case of `CN1CCc2cc3c(c4c2C1CC41C=CC(=O)C=C1)OCO3` (configuration not stated), the LC retention time is 1.08 min.
As for `COc1cc2c3cc1Oc1c(cccc1OC)CC1c4c(cc(O)c(OC)c4Oc4cccc(c4)CC3N(C)CC2)CCN1C` (configuration not stated), the LC retention time is 1.59 min.
Next, `Cn1c(-c2ccc3c(c2)OCO3)cc(=O)c2ccccc21`: 2.43 min; `CC(C)=CCCC(C)=CCC1=Cc2c(O)c3c(c(CC=C(C)C)c2OC1O)OC12C(=CC4CC1C(C)(C)OC2(CC=C(C)C(=O)O)C4=O)C3=O` (configuration not stated): 6.07 min; `O=C1CC(c2ccc(O)cc2)Oc2c1c(O)cc(O)c2C1C(=O)c2c(O)cc(O)cc2OC1c1ccc(O)cc1` (configuration not stated): 2.36 min.
Next, `C[C@@H]1O[C@@H](Oc2c(-c3ccc(O)c(O)c3)oc3cc(O)cc(O)c3c2=O)[C@H](O)[C@H](O)[C@H]1O`: 0.266 min; `CC(=O)OC(C)(C)/C=C/C(=O)[C@](C)(O)[C@H]1[C@H](O)C[C@@]2(C)C3CC=C4C(C[C@H](OC5OC(CO)C(O)C(O)C5O)C(=O)C4(C)C)[C@]3(C)C(=O)C[C@]12C` (some centres not stated): 2.74 min.
For `C=C(C)C(CC=C(C)C)Cc1c(O)cc(OC)c2c1OC(c1ccc(O)cc1O)CC2=O` (configuration not stated), the LC retention time is 4.6 min.
Next, `CCCC(CC(=O)O)C1=C2OC(=O)C(C(=O)C(C)CC)=C(O)C2(CC=C(C)C)CC(CC=C(C)C)C1(C)C` (configuration not stated): 6.55 min.
As for `CC(C)(O)/C=C/C(=O)[C@](C)(O)[C@H]1[C@H](O)C[C@@]2(C)C3CC=C4C(CC(=O)C(O)C4(C)C)[C@]3(C)C(=O)C[C@]12C` (some centres not stated), the LC retention time is 2.9 min.
